From US8546611B2 (priority 2008, dated 2013)
Read-outs that look alike come from different tables or passages of the source.

Assays:
[1] = test system: erythroid cells isolated from the bone marrow of laboratory mice males; conditions: feed with succinic acid 20 mg/kg body wt., not irradiated
Protocol: The test for genotoxicity was performed on young laboratory mice males (18-20 g; 6 animals in each group). […] The control animals were given water.

white rat females = conditions: in vivo; for Total died: 14 days
Wistar rat males = conditions: for Eosinophils, 6 h after / Lymphocytes, 6 h after / Number of leukocytes in 1 μl of blood, 6 h after / Segmentated cells, 6 h after: 6 h after immobilization; for Eosinophils, 6 h after / Lymphocytes, 6 h after / Number of leukocytes in 1 μl of blood, 6 h after / Segmentated cells, 6 h after / Eosinophils, before / Lymphocytes, before / Number of leukocytes in 1 μl of blood, before / Segmentated cells, before: 1.5 ml of 1% succinic acid perorally 10 min prior; for Eosinophils, before / Lymphocytes, before / Number of leukocytes in 1 μl of blood, before / Segmentated cells, before: at the moment of immobilization
Protocol: Examples, illustrating the method invented, are presented below. […] SA is tested on rats endured an immobilization stress; the parameter tested is lymphocytic composition of blood, which is determined before and after stress in a blood smear taken from the caudal vein. […] A detailed description of the testing technique is given in Example 13.
The animals were fixed while lying flat on their back, with their legs secured. […] Blood was taken from the caudal vein: 10 μl for counting blood corpuscles and 20 μl for preparing a smear with its subsequent staining by Romanovsky-Giemsa).
First group: 10 min prior immobilization, the animals were injected (perorally, with the help of a stomach pump) with 1.5 ml of 1% starch solution. […] Blood was taken from the caudal vein at the moment of immobilization and 6 hours later, and stained blood smears were prepared to calculate the leukogram.

[2] = test system: patients with cardiac insufficiency; conditions: for patients of functional class I, day 30 / patients of functional class II, day 30 / patients of functional class III, day 30 / patients of functional class IV, day 30 / patients of functional class I, day 60 / patients of functional class II, day 60 / patients of functional class III, day 60 / patients of functional class IV, day 60 / patients of functional class I, day 90 / patients of functional class II, day 90 / patients of functional class III, day 90 / patients of functional class IV, day 90: 100 mg twice per day with standard therapy; for patients of functional class I, day 30 / patients of functional class II, day 30 / patients of functional class III, day 30 / patients of functional class IV, day 30: after 30 days; for patients of functional class I, day 60 / patients of functional class II, day 60 / patients of functional class III, day 60 / patients of functional class IV, day 60: after 60 days; for patients of functional class I, day 90 / patients of functional class II, day 90 / patients of functional class III, day 90 / patients of functional class IV, day 90: after 90 days; for patients of functional class I, day 0 / patients of functional class II, day 0 / patients of functional class III, day 0 / patients of functional class IV, day 0: with standard therapy, before treatment
Protocol: The test for cardiotonic activity of product samples was performed by measuring the dynamics of alteration of the functional class of cardiac failure. The functional class can be determined quite accurately by analyzing the everyday life activities according to a specific activity scale. The authors of this technique suppose that the criteria developed by NYHA (New York Heart Association) cannot provide accurate determination of functional class, since widely used terms, such as “everyday physical activity”, “sub-everyday activity” are not specific. On the basis of multiple tests, in which patients exercised on a treadmill, the authors calculated a scale of metabolic expenses for each kind of life activity (see Goldman L., Hashimoto B., Cook F. et al., Comparative reproducibility and validity of systems for assessing cardiovascular functional class: advantages of a new specific activity scale (1981) Circulation 64 (6):1227-34). This inquiry is designed to be used by medical personnel, interviewing a patient. After calculating the sum of possible energy expenses, the functional class of the patient is determined according to the summary criteria of the specific activity scale (Table 6).
In the tests, the patient groups were formed so that the people of the same functional class were equally distributed among different groups. Severe patients (of IV functional class; those having oncological diseases or suffered myocardial infarction/stroke to the brain 60 days or less before) were not admitted to the tests. The distribution of patients among groups was governed by a random number generator. The tests were carried out by the following protocol. Each patient took 100 mg of the preparation twice per day (in the morning and after lunch) during 3 months—against the background of a standard therapy administered by a physician. […] All the samples and placebo were encoded before sending into the clinic, so none of those involved into the tests (patients, physicians, medical personnel and the manager of tests) was aware of the nature of samples.
The functional class of patients was determined several times: at the beginning of tests (before the formation of test groups) and after 30, 60 and 90 days of treatment with the test samples. The estimation was performed on the basis of the activity scale (Table 7).

[3] = test system: erythroid cells isolated from the bone marrow of gamma-irradiated laboratory mice males; assay: Radioprotective properties (micronucleus test after gamma irradiation); conditions: for Number of micronuclei per 2000 cells (radioprotective properties): mice irradiated with gamma rays 1.3 Gy, then fed 48 h succinic acid 20 mg/kg body wt., critical value 16±2

SMILES | Number of micronuclei per 2000 cells (genotoxicity) ([1]; norm 5.0±1.0) | died, 14 day (white rat females; female, 5000 mg/kg) | Total died (white rat females; female, 5000 mg/kg) | patients of functional class I, day 30 [2] | patients of functional class II, day 30 [2] | patients of functional class III, day 30 [2] | patients of functional class IV, day 30 [2] | patients of functional class I, day 60 [2] | patients of functional class II, day 60 [2] | patients of functional class III, day 60 [2] | patients of functional class IV, day 60 [2] | patients of functional class I, day 90 [2] | patients of functional class II, day 90 [2] | patients of functional class III, day 90 [2] | patients of functional class IV, day 90 [2] | patients of functional class I, day 0 ([2]; 100 mg twice per day, 3 months) | patients of functional class II, day 0 ([2]; 100 mg twice per day, 3 months) | patients of functional class III, day 0 ([2]; 100 mg twice per day, 3 months) | patients of functional class IV, day 0 ([2]; 100 mg twice per day, 3 months) | Number of micronuclei per 2000 cells (radioprotective properties) [3] | also measured
O=C(O)CCC(=O)O [Example 10, succinic acid] | 5.0 ± 1.0 | 2 | 3 | 10 | 5 | 4 | 0 | 10 | 7 | 3 | 0 | 14 | 5 | 1 | 0 | 8 | 7 | 5 | 0 | 12.5 ± 1.0 | died, 13 day (white rat females; female, 5000 mg/kg): 1; Eosinophils, 6 h after (Wistar rat males; listed as Ex. 10): 1.5 ± 2%; Lymphocytes, 6 h after (Wistar rat males; listed as Ex. 10): 74 ± 4%; Number of leukocytes in 1 μl of blood, 6 h after (Wistar rat males; listed as Ex. 10): 7000; Segmentated cells, 6 h after (Wistar rat males; listed as Ex. 10): 24 ± 4%; Eosinophils, before (Wistar rat males; listed as Ex. 10): 2 ± 2%; Lymphocytes, before (Wistar rat males; listed as Ex. 10): 76 ± 5%; Number of leukocytes in 1 μl of blood, before (Wistar rat males; listed as Ex. 10): 5800; Segmentated cells, before (Wistar rat males; listed as Ex. 10): 22 ± 3%
O=C(O)CCC(=O)O [Example 6, succinic acid] | 4.5 ± 1.0 | 2 | 3 | 10 | 6 | 4 | 0 | 11 | 6 | 3 | 0 | 14 | 5 | 1 | 0 | 8 | 7 | 5 | 0 | 12.5 ± 1.0 | died, 11 day (white rat females; female, 5000 mg/kg, 11 day): 1; Eosinophils, 6 h after (Wistar rat males; listed as Ex. 6): 1.0 ± 2%; Lymphocytes, 6 h after (Wistar rat males; listed as Ex. 6): 74 ± 6%; Number of leukocytes in 1 μl of blood, 6 h after (Wistar rat males; listed as Ex. 6): 7000; Segmentated cells, 6 h after (Wistar rat males; listed as Ex. 6): 25 ± 3%; Eosinophils, before (Wistar rat males; listed as Ex. 6): 2 ± 2%; Lymphocytes, before (Wistar rat males; listed as Ex. 6): 77 ± 5%; Number of leukocytes in 1 μl of blood, before (Wistar rat males; listed as Ex. 6): 5800; Segmentated cells, before (Wistar rat males; listed as Ex. 6): 21 ± 3%
O=C(O)CCC(=O)O [“Natural” SA, succinic acid, reference compound] | – | 2 | 3 | 10 | 6 | 4 | 0 | 9 | 8 | 3 | 0 | 14 | 5 | 1 | 0 | 8 | 7 | 4 | 0 | – | Number of micronuclei per 2000 cells (genotoxicity) ([1]; norm 5.0±1.0, listed as “Natural acid”): 5.0 ± 1.0; died, 13 day (white rat females; female, 5000 mg/kg): 1; adaptogenic properties, conclusion in words (Wistar rat males; 6-hour immobilization stress, Wistar rats, listed as “natural” acid): evident adaptogens; Eosinophils, 6 h after (Wistar rat males): 1.5 ± 3%; Lymphocytes, 6 h after (Wistar rat males): 74 ± 4%; Number of leukocytes in 1 μl of blood, 6 h after (Wistar rat males): 7100; Segmentated cells, 6 h after (Wistar rat males): 25 ± 3%; Eosinophils, before (Wistar rat males): 2 ± 4%; Lymphocytes, before (Wistar rat males): 75 ± 4%; Number of leukocytes in 1 μl of blood, before (Wistar rat males): 5900; Segmentated cells, before (Wistar rat males): 23 ± 2%; cardiotonic properties / dynamics of functional class, conclusion in words ([2]; 100 mg twice per day, 3 months, listed as “natural” acid): high cardiotonic properties; radioprotective effect, conclusion in words ([3]; gamma rays 1.3 Gy, 20 mg/kg body wt., 48 h, 20 mg/kg): evident radioprotectors; Number of micronuclei per 2000 cells (radioprotective properties) ([3]; listed as “Natural acid”): 12.0 ± 1.6
O=C(O)CCC(=O)O [Example 1, succinic acid, reference compound] | 5.5 ± 0.8 | – | 0 | 8 | 7 | 5 | 0 | 9 | 6 | 5 | 0 | 9 | 7 | 4 | 0 | 8 | 7 | 5 | 0 | 25.5 ± 1.0 | animals died, extra test with doubled dose (white rat females; 10000 mg/kg): Not a single animal died; Eosinophils, 6 h after (Wistar rat males; listed as Ex. 1): 0%; Lymphocytes, 6 h after (Wistar rat males; listed as Ex. 1): 69 ± 5%; Number of leukocytes in 1 μl of blood, 6 h after (Wistar rat males; listed as Ex. 1): 7900; Segmentated cells, 6 h after (Wistar rat males; listed as Ex. 1): 29 ± 3%; Eosinophils, before (Wistar rat males; listed as Ex. 1): 2 ± 4%; Lymphocytes, before (Wistar rat males; listed as Ex. 1): 78 ± 4%; Number of leukocytes in 1 μl of blood, before (Wistar rat males; listed as Ex. 1): 5900; Segmentated cells, before (Wistar rat males; listed as Ex. 1): 21 ± 2%
O=C(O)CCC(=O)O [Example 4, succinic acid] | 5.5 ± 1.0 | 1 | 3 | 8 | 7 | 5 | 0 | 9 | 9 | 3 | 0 | 13 | 6 | 1 | 0 | 8 | 7 | 5 | 0 | 12.5 ± 2.0 | died, 12 day (white rat females; female, 5000 mg/kg, 12 day): 1; died, 13 day (white rat females; female, 5000 mg/kg): 1; Eosinophils, 6 h after (Wistar rat males; listed as Ex. 4): 1.5 ± 6%; Lymphocytes, 6 h after (Wistar rat males; listed as Ex. 4): 74 ± 8%; Number of leukocytes in 1 μl of blood, 6 h after (Wistar rat males; listed as Ex. 4): 7100; Segmentated cells, 6 h after (Wistar rat males; listed as Ex. 4): 24 ± 3%; Eosinophils, before (Wistar rat males; listed as Ex. 4): 2 ± 4%; Lymphocytes, before (Wistar rat males; listed as Ex. 4): 77 ± 4%; Number of leukocytes in 1 μl of blood, before (Wistar rat males; listed as Ex. 4): 5900; Segmentated cells, before (Wistar rat males; listed as Ex. 4): 21 ± 2%
